The target in the test is NAMPT enzyme (Homo sapiens (Human), UniProt P43490). The test is described as follows: Enzyme Assay and NMN Detection (NAMPT reaction, fluorescence detection of NMN). The test is classed as biochemical. As to conditions: NAMPT activation, NMN formation. Summed up:
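NMN formed was read at ex380/em460 after acetophenone/KOH derivatization and formic acid addition, using a same-day calibration curve. Final conditions: NAMPT 16 nM, nicotinamide 5 uM, PRPP 6.25 uM, ATP 120 uM, pyrophosphatase 0.04 U/ml, pH 7.5 HEPES buffer with MgCl2 and TCEP, 2 h at room temperature.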

pEC50: −log10 of the molar value.

The source of these data is patent publication US11452717B2, “Small molecule activators of nicotinamide phosphoribosyltransferase (NAMPT) and uses thereof” (Sanford Burnham Prebys Medical Discovery Institute, priority 2017, dated 2022).

Sequence of NAMPT enzyme (P43490 whole entry, species assumed): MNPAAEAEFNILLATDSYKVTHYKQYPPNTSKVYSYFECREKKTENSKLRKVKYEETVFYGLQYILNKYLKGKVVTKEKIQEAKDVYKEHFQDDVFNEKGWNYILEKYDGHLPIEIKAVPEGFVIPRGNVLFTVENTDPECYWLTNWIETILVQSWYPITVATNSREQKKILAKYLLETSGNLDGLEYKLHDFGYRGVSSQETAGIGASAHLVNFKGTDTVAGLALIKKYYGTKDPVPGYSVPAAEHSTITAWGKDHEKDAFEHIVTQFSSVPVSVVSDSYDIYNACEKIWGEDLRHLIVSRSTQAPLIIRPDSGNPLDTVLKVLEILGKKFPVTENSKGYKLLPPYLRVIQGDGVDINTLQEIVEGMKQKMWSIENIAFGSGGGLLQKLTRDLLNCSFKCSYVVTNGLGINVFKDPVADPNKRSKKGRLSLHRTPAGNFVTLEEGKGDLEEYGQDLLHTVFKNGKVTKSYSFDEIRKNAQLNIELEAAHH

The pEC50 is −log10 of the EC50, conventionally taken in molar units. A higher pEC50 goes with a low EC50. `COC(=O)c1ccc(NC(=O)c2ccc(NC(=O)NCc3ccncc3)cc2)cc1` [Methyl 4-(4-(3-(pyridin-4-ylmethyl)ureido)benzamido)benzoate] had a pEC50 (Table B-2) of 5.70 to 7.00.

Compound `O=C(NCc1ccncc1)Nc1ccc(S(=O)(=O)N(Cc2ccccc2)Cc2ccccc2)cc1` [N,N-Dibenzyl-4-(3-pyridin-4-ylmethyl-ureido)-benzenesulfonamide] had a negative logarithm of the EC50 (pEC50) (Table B-2) of under 4.70. The same measure, in the same setting: with `CN(C)S(=O)(=O)c1ccc(NC(=O)NCc2ccncc2)cc1` [N,N-Dimethyl-4-(3-pyridin-4-ylmethy-ureido)-benzenesulfonamide] the figure was 5.30 to 5.70.

`CCN(CC)C(=O)c1ccc(NC(=O)NCc2ccncc2)cc1` [N,N-diethyl-4-(3-(pyridin-4-ylmethyl)ureido)benzamide] showed a negative logarithm of the EC50 (pEC50) (Table B-2) of under 4.70. Compound `CN(C)C(=O)c1ccc(NC(=O)NCc2ccncc2)cc1` [N,N-dimethyl-4-(3-(pyridin-4-ylmethyl)ureido)benzamide] gave a pEC50 (Table B-2) of under 4.70. The same measure, in the same setting: with `CN(C)S(=O)(=O)c1ccc(CNS(=O)(=O)c2ccc(NC(=O)NCc3ccncc3)cc2)cc1` [N,N-dimethyl-4-((4-(3-(pyridin-4-ylmethyl)ureido)phenylsulfonamido)methyl)benzenesulfonamide] the figure was 5.70 to 7.00; with `CC(NS(=O)(=O)c1ccc(NC(=O)NCc2ccncc2)cc1)C1CCC1` (stereo not shown) [N-(1-Cyclobutyl-ethyl)-4-(3-pyridin-4-ylmethyl-ureido)-benzenesulfonamide], 5.70 to 7.00.

For `CCN1CCCC1CNS(=O)(=O)c1ccc(NC(=O)NCc2ccncc2)cc1` (stereo not shown) [N-(1-Ethyl-pyrrolidin-2-ylmethyl)-4-(3-pyridin-4-ylmethyl-ureido)-benzenesulfonamide], the pEC50 (Table B-2) was 5.70 to 7.00. On the same count and under the same terms, with `CN1CCC(NS(=O)(=O)c2ccc(NC(=O)NCc3ccncc3)cc2)C1` (stereo not shown) [N-(1-Methyl-pyrrolidin-3-yl)-4-(3-pyridin-4-ylmethyl-ureido)-benzenesulfonamide] the figure was 5.30 to 5.70; with `CC(NS(=O)(=O)c1ccc(NC(=O)NCc2ccncc2)cc1)c1ccccc1` (stereo not shown) [N-(1-phenylethyl)-4-(3-(pyridin-4-ylmethyl)ureido)benzenesulfonamide], 5.70 to 7.00. With `O=C(NCc1ccncc1)Nc1ccc(C(=O)Nc2ccc3c(c2)OCCO3)cc1` [N-(2,3-dihydrobenzo[b][1,4]dioxin-6-yl)-4-(3-(pyridin-4-ylmethyl)ureido)benzamide], the pEC50 (Table B-2) was 5.70 to 7.00. Still for that read-out and setting: the result for `CN(C)CCNC(=O)c1ccc(NC(=O)NCc2ccncc2)cc1` [N-(2-(dimethylamino)ethyl)-4-(3-(pyridin-4-ylmethyl)ureido)benzamide] reads 4.70 to 5.30; that for `CN(C)c1ccccc1NC(=O)c1ccc(NC(=O)NCc2ccncc2)cc1` [N-(2-(dimethylamino)phenyl)-4-(3-(pyridin-4-ylmethyl)ureido)benzamide], 5.70 to 7.00.

For the compound `O=C(NCc1ccncc1)Nc1ccc(C(=O)NCCN2CCCCC2)cc1` [N-(2-(piperidin-1-yl)ethyl)-4-(3-(pyridin-4-ylmethyl)ureido)benzamide], the negative-log EC50 (pEC50) (Table B-2) is 5.30 to 5.70. Consider `O=C(NCc1ccncc1)Nc1ccc(S(=O)(=O)NCc2ccccc2Cl)cc1` [N-(2-Chloro-benzyl)-4-(3-pyridin-4-ylmethyl-ureido)-benzenesulfonamide], for which the pEC50 (Table B-2) was over 7.00. `O=C(NCc1cn[nH]c1)Nc1ccc(S(=O)(=O)NCc2ccccc2Cl)cc1` [N-(2-Chloro-benzyl)-4-[3-(1H-pyrazol-4-ylmethyl)-ureido]-benzenesulfonamide] showed a pEC50 (Table B-1) of over 7.00. Consider `CN(Cc1ccccc1Cl)S(=O)(=O)c1ccc(NC(=O)NCc2ccncc2)cc1` [N-(2-Chloro-benzyl)-N-methyl-4-(3-pyridin-4-ylmethyl-ureido)-benzenesulfonamide], for which, where the note is “Table B-2”, the negative-log EC50 (pEC50) was over 7.00. The same measure, in the same setting: with `N#Cc1ccccc1CNS(=O)(=O)c1ccc(NC(=O)NCc2ccncc2)cc1` [N-(2-Cyano-benzyl)-4-(3-pyridin-4-ylmethyl-ureido)-benzenesulfonamide] the figure was 5.70 to 7.00; with `CN(C)c1ccccc1CNS(=O)(=O)c1ccc(NC(=O)NCc2ccncc2)cc1` [N-(2-Dimethylamino-benzyl)-4-(3-pyridin-4-ylmethyl-ureido)-benzenesulfonamide], over 7.00; with `CN(C)CCNS(=O)(=O)c1ccc(NC(=O)NCc2ccncc2)cc1` [N-(2-Dimethylamino-ethyl)-4-(3-pyridin-4-ylmethyl-ureido)-benzenesulfonamide], 5.70 to 7.00.

For the compound `CN(Cc1ccccc1F)S(=O)(=O)c1ccc(NC(=O)NCc2ccncc2)cc1` [N-(2-Fluoro-benzyl)-N-methyl-4-(3-pyridin-4-ylmethyl-ureido)-benzenesulfonamide], the negative-log EC50 (pEC50) (Table B-2) was over 7.00. On the same count and under the same terms, with `O=C(NCc1ccncc1)Nc1ccc(S(=O)(=O)NCCO)cc1` [N-(2-Hydroxy-ethyl)-4-(3-pyridin-4-ylmethyl-ureido)-benzenesulfonamide] the figure was 5.30 to 5.70; with `CN(CCO)S(=O)(=O)c1ccc(NC(=O)NCc2ccncc2)cc1` [N-(2-Hydroxy-ethyl)-N-methyl-4-(3-pyridin-4-ylmethyl-ureido)-benzenesulfonamide], 5.70 to 7.00.

Take `COc1ccccc1CNS(=O)(=O)c1ccc(NC(=O)NCc2cn[nH]c2)cc1` [N-(2-Methoxy-benzyl)-4-[3-(1H-pyrazol-4-ylmethyl)-ureido]-benzenesulfonamide]: the negative logarithm of the EC50 (pEC50) (Table B-1) is over 7.00.

In turn, `COc1ccccc1CN(C)S(=O)(=O)c1ccc(NC(=O)NCc2ccncc2)cc1` [N-(2-Methoxy-benzyl)-N-methyl-4-(3-pyridin-4-ylmethyl-ureido)-benzenesulfonamide] had a pEC50 (Table B-2) of over 7.00. Same read-out and setting: with `COCCNS(=O)(=O)c1ccc(NC(=O)NCc2ccncc2)cc1` [N-(2-Methoxy-ethyl)-4-(3-pyridin-4-ylmethyl-ureido)-benzenesulfonamide] the figure was 5.70 to 7.00; with `COc1ccccc1NS(=O)(=O)c1ccc(NC(=O)NCc2ccncc2)cc1` [N-(2-Methoxy-phenyl)-4-(3-pyridin-4-ylmethyl-ureido)-benzenesulfonamide], 5.70 to 7.00. Where the note is “Table B-2”, `Cc1ccccc1CNS(=O)(=O)c1ccc(NC(=O)NCc2ccncc2)cc1` [N-(2-Methyl-benzyl)-4-(3-pyridin-4-ylmethyl-ureido)-benzenesulfonamide] showed a pEC50 of 5.70 to 7.00. `O=C(NCc1ccncc1)Nc1ccc(S(=O)(=O)NCCN2CCOCC2)cc1` [N-(2-Morpholin-4-yl-ethyl)-4-(3-pyridin-4-ylmethyl-ureido)-benzenesulfonamide] gave a negative logarithm of the EC50 (pEC50) (Table B-2) of 5.70 to 7.00. Still for that read-out and setting: the result for `O=C(NCc1ccncc1)Nc1ccc(S(=O)(=O)NCCN2CCCCC2)cc1` [N-(2-Piperidin-1-yl-ethyl)-4-(3-pyridin-4-ylmethyl-ureido)-benzenesulfonamide] reads 5.30 to 5.70; that for `O=C(NCc1ccncc1)Nc1ccc(C(=O)NCc2ccccc2Cl)cc1` [N-(2-chlorobenzyl)-4-(3-(pyridin-4-ylmethyl)ureido)benzamide], under 4.70. Still for that read-out and setting: with `O=C(NCc1ccncc1)Nc1ccc(C(=O)Nc2ccccc2Cl)cc1` [N-(2-chlorophenyl)-4-(3-(pyridin-4-ylmethyl)ureido)benzamide] the figure was 5.70 to 7.00; with `O=C(NCc1ccncc1)Nc1ccc(C(=O)NCc2ccccc2F)cc1` [N-(2-fluorobenzyl)-4-(3-(pyridin-4-ylmethyl)ureido)benzamide], 5.30 to 5.70.

In the case of `O=C(NCc1ccncc1)Nc1ccc(S(=O)(=O)NCc2ccccc2F)cc1` [N-(2-fluorobenzyl)-4-(3-(pyridin-4-ylmethyl)ureido)benzenesulfonamide], the pEC50 (Table B-2) was 5.70 to 7.00. On the same count and under the same terms, with `O=C(NCc1ccncc1)Nc1ccc(C(=O)Nc2ccccc2F)cc1` [N-(2-fluorophenyl)-4-(3-(pyridin-4-ylmethyl)ureido)benzamide] the figure was 5.70 to 7.00; with `O=C(NCc1ccncc1)Nc1ccc(C(=O)NCCO)cc1` [N-(2-hydroxyethyl)-4-(3-(pyridin-4-ylmethyl)ureido)benzamide], under 4.70. The same measure, in the same setting: with `COc1ccccc1CNC(=O)c1ccc(NC(=O)NCc2ccncc2)cc1` [N-(2-methoxybenzyl)-4-(3-(pyridin-4-ylmethyl)ureido)benzamide] the figure was under 4.70; with `COc1ccccc1CNS(=O)(=O)c1ccc(NC(=O)NCc2ccncc2)cc1` [N-(2-methoxybenzyl)-4-(3-(pyridin-4-ylmethyl)ureido)benzenesulfonamide], 5.70 to 7.00; with `COCCNC(=O)c1ccc(NC(=O)NCc2ccncc2)cc1` [N-(2-methoxyethyl)-4-(3-(pyridin-4-ylmethyl)ureido)benzamide], 5.30 to 5.70. On the same count and under the same terms, the result for `COc1ccccc1NC(=O)c1ccc(NC(=O)NCc2ccncc2)cc1` [N-(2-methoxyphenyl)-4-(3-(pyridin-4-ylmethyl)ureido)benzamide] reads 5.70 to 7.00.

For `Cc1ccccc1CNC(=O)c1ccc(NC(=O)NCc2ccncc2)cc1` [N-(2-methylbenzyl)-4-(3-(pyridin-4-ylmethyl)ureido)benzamide], the negative-log EC50 (pEC50) (Table B-2) is 5.70 to 7.00.

For the compound `O=C(NCc1ccncc1)Nc1ccc(C(=O)NCCN2CCOCC2)cc1` [N-(2-morpholinoethyl)-4-(3-(pyridin-4-ylmethyl)ureido)benzamide], the negative logarithm of the EC50 (pEC50) (Table B-2) was 5.70 to 7.00. The same measure, in the same setting: the result for `COc1ccc(NC(=O)c2ccc(NC(=O)NCc3ccncc3)cc2)cc1OC` [N-(3,4-dimethoxyphenyl)-4-(3-(pyridin-4-ylmethyl)ureido)benzamide] reads 5.70 to 7.00; that for `Cc1ccc(NC(=O)c2ccc(NC(=O)NCc3ccncc3)cc2)cc1C` [N-(3,4-dimethylphenyl)-4-(3-(pyridin-4-ylmethyl)ureido)benzamide], 5.70 to 7.00. Still for that read-out and setting: the result for `CN(C)c1cccc(NC(=O)c2ccc(NC(=O)NCc3ccncc3)cc2)c1` [N-(3-(dimethylamino)phenyl)-4-(3-(pyridin-4-ylmethyl)ureido)benzamide] reads 5.70 to 7.00. On the same count and under the same terms, the result for `O=C(NCc1ccncc1)Nc1ccc(S(=O)(=O)NCc2cccc(Cl)c2)cc1` [N-(3-Chloro-benzyl)-4-(3-pyridin-4-ylmethyl-ureido)-benzenesulfonamide] reads 5.70 to 7.00.
